Experimental data reported in patent US20250136594A1 (Tango Therapeutics, Inc., priority 2022, published 2025).
Like-named read-outs stand apart in the source and are kept apart here.

Legend:
[1] = test system: SDMA in HAP1 MTAP-deleted (MTAP-null) cell line (PRMT5 inhibition); test: SDMA in-cell western assay, HAP1 MTAP-deleted cell line; conditions: for IC50 / IC90: Homo sapiens; for IC50: HAP1, read-out: Hap1 MTAP deleted IC50; for IC90: HAP1, read-out: Hap1 MTAP deleted IC90; for Hap1 MTAP intact/deleted ratio: ratio of SDMA IC50 in HAP1 MTAP-intact to HAP1 MTAP-deleted cell line
[2] = test system: HAP1 MTAP-deleted cell line; test: Viability assay, HAP1 MTAP-deleted cell line; type: cell-based; conditions: Homo sapiens
[3] = test system: SDMA in HAP1 MTAP-intact cell line (PRMT5 inhibition); test: SDMA in-cell western assay, HAP1 MTAP-intact cell line; conditions: Homo sapiens, HAP1, read-out: Hap1 MTAP intact IC50
[4] = viability assay, HAP1 MTAP-deleted cell line, read-out: Hap1 MTAP deleted viability IC50

Row | Compound | IC50 [1] [nM] | IC90 [1] [nM] | IC50 [3] [nM] | Hap1 MTAP intact/deleted ratio [1] | IC50 [2, 4] [nM] | IC50 ([2]; HAP1, read-out: Hap1 MTAP deleted viability IC50) [nM]
1 | Nc1ncc(NC(=O)C(=O)N(Cc2ccc(C(F)(F)F)cn2)[C@@H]2CCc3ccccc32)c2[nH]ncc12 [Compound 8, (R)-N1-(4-amino-1H-pyrazolo[4,3-c]pyridin-7-yl)-N2-(2,3-dihydro-1H-inden-1-yl)-N2-((5-(trifluoromethyl)pyridin-2-yl)methyl)oxalamide] | < 5 | < 75 | < 5 | C (IC50 ratio of less than 15 fold) | < 100 | –
2 | Nc1ncc(NC(=O)C(=O)N(Cc2ccccn2)Cc2cccc3ccccc23)c2[nH]ncc12 [Compound 132, N-(4-amino-2H-pyrazolo[4,3-c]pyridin-7-yl)-N′-(1-naphthylmethyl)-N′-(2-pyridylmethyl)oxamide] | < 5 | < 75 | 5 to 50 | A (IC50 ratio greater than or equal to 30 fold) | < 100 | –
3 | Cc1cc(NC(=O)C(=O)N(Cc2ccc(C(F)(F)F)cn2)[C@@H](C)c2ncccn2)cnc1N [Compound 49, N-(6-amino-5-methyl-3-pyridyl)-N′—[(1S)-1-pyrimidin-2-ylethyl]-N′-[[5-(trifluoromethyl)-2-pyridyl]methyl]oxamide] | 5 to 50 | > 125 | 5 to 50 | C (IC50 ratio of less than 15 fold) | 100 to 1000 | –
4 | Nc1ncc(NC(=O)C(=O)N(Cc2ccccc2)CC2CCCCC2)c2[nH]ncc12 [Compound 175, N-(4-amino-1H-pyrazolo[4,3-c]pyridin-7-yl)-N′-benzyl-N′-(cyclohexylmethyl)oxamide] | < 5 | < 75 | > 50 | A (IC50 ratio greater than or equal to 30 fold) | < 100 | –
5 | Cc1cc(C(F)(F)F)cnc1CN(Cc1ncccn1)C(=O)C(=O)Nc1cnc(N)c2cn[nH]c12 [Compound 86, N-(4-amino-1H-pyrazolo[4,3-c]pyridin-7-yl)-N′-[[3-methyl-5-(trifluoromethyl)-2-pyridyl]methyl]-N′-(pyrimidin-2-ylmethyl)oxamide] | < 5 | < 75 | 5 to 50 | C (IC50 ratio of less than 15 fold) | < 100 | –
6 | Cc1ccccc1CN(CC(C)C)C(=O)C(=O)Nc1cnc(N)c2cn[nH]c12 [Compound 185, N-(4-amino-1H-pyrazolo[4,3-c]pyridin-7-yl)-N′-isobutyl-N′-(o-tolylmethyl)oxamide] | < 5 | < 75 | > 50 | A (IC50 ratio greater than or equal to 30 fold) | < 100 | –
7 | CCN(C(=O)C(=O)Nc1cnc(N)c2cn[nH]c12)[C@H](C)c1ccc(C(F)(F)C(F)(F)F)cc1C [Compound 59, (R)—N^1-(4-amino-1H-pyrazolo[4,3-c]pyridin-7-yl)-N^2-ethyl-N^2-(1-(2-methyl-4-(perfluoroethyl)phenyl)ethyl)oxalamide] | < 5 | < 75 | 5 to 50 | C (IC50 ratio of less than 15 fold) | < 100 | –
8 | C[C@@H](c1ccc(C(F)(F)F)cn1)N(C)C(=O)C(=O)Nc1cnc(N)c2cn[nH]c12 [Compound 127, N-(4-amino-1H-pyrazolo[4,3-c]pyridin-7-yl)-N′-methyl-N′—[(1S)-1-[5-(trifluoromethyl)-2-pyridyl]ethyl]oxamide] | 5 to 50 | > 125 | > 50 | A (IC50 ratio greater than or equal to 30 fold) | 100 to 1000 | –
9 | C[C@@H](c1ccc(C(F)(F)F)cc1F)N(C)C(=O)C(=O)Nc1cnc(N)c2c1cnn2C [Compound 82, N-(7-Amino-1-methyl-pyrazolo[3,4-c]pyridin-4-yl)-N′-methyl-N′—[(1S)-1-[2-fluoro-4-(trifluoromethyl)phenyl]ethyl]oxamide] | 5 to 50 | > 125 | > 50 | B (IC50 ratio greater than or equal to 15 fold but lower than 30 fold) | 100 to 1000 | –
10 | C[C@H](c1ccc(C(F)(F)F)cc1C(F)(F)F)N(C)C(=O)C(=O)Nc1cnc(N)c2cn[nH]c12 [Compound 193, N-(4-Amino-2H-pyrazolo[4,3-c]pyridin-7-yl)-N′-methyl-N′—[(1R)-1-[2,4-bis (trifluoromethyl)phenyl]ethyl]oxamide] | < 5 | < 75 | > 50 | – | – | < 100
11 | CC1CCC(N(Cc2ccc(C(F)(F)F)cn2)C(=O)C(=O)Nc2cncc3cn[nH]c23)c2ccccc21 (centres unmarked) [Compound 17, N′-(4-methyltetralin-1-yl)-N-(1H-pyrazolo[4,3-c]pyridin-7-yl)-N′-[[5-(trifluoromethyl)-2-pyridyl]methyl]oxamide] | 5 to 50 | > 125 | > 50 | C (IC50 ratio of less than 15 fold) | < 100 | –
12 | Cc1ccccc1CN(Cc1ccc(C(F)(F)F)cn1)C(=O)C(=O)Nc1cnc(N)c2cn[nH]c12 [Compound 76, N-(4-amino-1H-pyrazolo[4,3-c]pyridin-7-yl)-N′-(o-tolylmethyl)-N′-[[5-(trifluoromethyl)-2-pyridyl]methyl]oxamide] | < 5 | < 75 | 5 to 50 | C (IC50 ratio of less than 15 fold) | < 100 | –
13 | CCc1cc(NC(=O)C(=O)N(Cc2ccc(C(F)(F)F)cn2)[C@@H]2CCc3ccccc32)cnc1N [Compound 36, (R)-N1-(6-amino-5-ethylpyridin-3-yl)-N2-(2,3-dihydro-1H-inden-1-yl)-N2-((5-(trifluoromethyl)pyridin-2-yl)methyl)oxalamide] | 5 to 50 | 75 to 125 | > 50 | A (IC50 ratio greater than or equal to 30 fold) | < 100 | –
14 | C[C@H](c1ccc(C(F)(F)F)cc1F)N(C)C(=O)C(=O)Nc1cnc(N)c2c1cnn2C [Compound 84, N-(7-Amino-1-methyl-pyrazolo[3,4-c]pyridin-4-yl)-N′-methyl-N′—[(1R)-1-[2-fluoro-4-(trifluoromethyl)phenyl]ethyl]oxamide] | < 5 | < 75 | 5 to 50 | A (IC50 ratio greater than or equal to 30 fold) | < 100 | –
15 | CC(C)CN(C(=O)C(=O)Nc1cnc(N)c2cn[nH]c12)[C@@H](C)c1ccccc1 [Compound 165, (S)—N^1-(4-amino-1H-pyrazolo[4,3-c]pyridin-7-yl)-N^2-isobutyl-N^2-(1-phenylethyl)oxalamide] | 5 to 50 | 75 to 125 | > 50 | A (IC50 ratio greater than or equal to 30 fold) | < 100 | –

More lines, main results first:

Row | IC50 [1] [nM] | IC90 [1] [nM] | IC50 [3] [nM] | Compound | Hap1 MTAP intact/deleted ratio [1] | IC50 [2, 4] [nM] | IC50 ([2]; HAP1, read-out: Hap1 MTAP deleted viability IC50) [nM]
16 | < 5 | < 75 | 5 to 50 | Cc1cc(F)ccc1CN(Cc1ccccc1)C(=O)C(=O)Nc1cnc(N)c2cn[nH]c12 [Compound 149, N-(4-amino-1H-pyrazolo[4,3-c]pyridin-7-yl)-N′-benzyl-N′-[(4-fluoro-2-methyl-phenyl)methyl]oxamide] | B (IC50 ratio greater than or equal to 15 fold but lower than 30 fold) | < 100 | –
17 | < 5 | < 75 | 5 to 50 | CC(c1ccccn1)N(Cc1ccccc1)C(=O)C(=O)Nc1cnc(N)c2cn[nH]c12 (centres unmarked) [Compound 139, N-(4-amino-1H-pyrazolo[4,3-c]pyridin-7-yl)-N′-benzyl-N′-[1-(2-pyridyl)ethyl]oxamide] | A (IC50 ratio greater than or equal to 30 fold) | < 100 | –
18 | < 5 | < 75 | 5 to 50 | Cc1cccnc1CN(Cc1ccccc1)C(=O)C(=O)Nc1cnc(N)c2cn[nH]c12 [Compound 114, N-(4-amino-1H-pyrazolo[4,3-c]pyridin-7-yl)-N′-benzyl-N′-[(3-methyl-2-pyridyl)methyl]oxamide] | C (IC50 ratio of less than 15 fold) | < 100 | –
19 | < 5 | < 75 | < 5 | Nc1ncc(NC(=O)C(=O)N(Cc2ccccc2)Cc2ccccc2C(F)(F)F)c2[nH]ncc12 [Compound 95, N-(4-amino-1H-pyrazolo[4,3-c]pyridin-7-yl)-N′-benzyl-N′-[[2-(trifluoromethyl)phenyl]methyl]oxamide] | C (IC50 ratio of less than 15 fold) | < 100 | –
20 | < 5 | < 75 | 5 to 50 | Nc1ncc(NC(=O)C(=O)N(Cc2ccccc2)Cc2ncc(F)cc2Cl)c2[nH]ncc12 [Compound 65, N-(4-amino-1H-pyrazolo[4,3-c]pyridin-7-yl)-N′-benzyl-N′-[(3-chloro-5-fluoro-2-pyridyl)methyl]oxamide] | C (IC50 ratio of less than 15 fold) | < 100 | –
21 | < 5 | < 75 | 5 to 50 | Cc1cc(Cl)ccc1CN(Cc1ccccc1)C(=O)C(=O)Nc1cnc(N)c2cn[nH]c12 [Compound 186, N-(4-amino-1H-pyrazolo[4,3-c]pyridin-7-yl)-N′-benzyl-N′-[(4-chloro-2-methyl-phenyl)methyl]oxamide] | B (IC50 ratio greater than or equal to 15 fold but lower than 30 fold) | < 100 | –
